Consider four molecules from patent US11034718B2, “C-3 novel triterpenone with C-17 reverse amide derivatives as HIV inhibitors” (HETERO LABS LIMITED, priority 2015, dated 2021).

Where two headings read alike, the source gives them in different places.

Type in all cases: cell-based
Experiment [1] concerns HIV-1 pNL4-3 WT. Put plainly: Antiviral activity against pNL4-3/WT strain in MT4 cells (p24 estimation). As to conditions: Human immunodeficiency virus 1, MT4, 96 h, read-out: pNL4-3 WT IC50. In a few lines: (§1)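 MT4 cells infected with HIV-1 pNL4-3 WT or V7A (defined TCID50, 1.5 h, 37° C), plated at 3×10^4 cells/well with test compound, final DMSO ≤1%. After 4 days' culture, p24 in supernatant aliquots measured by kit.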

The subject of experiment [2] is HIV-1 strain 92HT599. Put plainly: Antiviral activity against HIV-1 strain 92HT599 in MT2 cells (p24 estimation). As to conditions: HIV-1 92HT599, ~96 hours. In a few lines: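 Percent inhibition versus vehicle controls came from p24 quantified in supernatant aliquots. These were taken after ~96 h incubation of compound (DMSO ≤1%) with MT2 cells infected at 10 TCID50/30,000 cells.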

Experiment [3] has as its system HIV-1 pNL4-3 V7A. In words: Antiviral activity against pNL4-3/V7A strain in MT4 cells (p24 estimation). Conditions: Human immunodeficiency virus 1, MT4, 96 h, read-out: pNL4-3 V7A IC50. Summed up: as §1
The mark [4] stands for this setting: Human immunodeficiency virus 1, 0% serum binding assay, read-out: IC50 0% serum.
Where [5] appears, read: Human immunodeficiency virus 1, 40% serum binding assay, read-out: IC50 40% serum.

As a reminder, the IC50 is the concentration that inhibits the measured activity by half.

`CC(C)C1=C2[C@H]3CC[C@@H]4[C@@]5(C)CC[C@H](OC(=O)[C@H]6C[C@@H](C(=O)O)C6(C)C)C(C)(C)[C@@H]5CC[C@@]4(C)[C@]3(C)CC[C@@]2(NC(=O)C(C)(C)NC(=O)Cc2ccc(Cl)cc2)CC1=O` [Example 53, (1R,3S)-3-((((3aR,5aR,5bR,7aR,9S,11aR,11bR,13aS)-3a-(2-(2-(4-chlorophenyl)acetamido)-2-methylpropanamido)-1-isopropyl-5a,5b,8,8,11a-pentamethyl-2-oxo-3,3a,4,5,5a,5b,6,7,7a,8,9,10,11,11a,11b,12,13,13a-octadecahydro-2H-cyclopenta[a]chrysen-9-yl)oxy)carbonyl)-2,2-dimethylcyclobutane-1-carboxylic acid]: the half-maximal inhibitory concentration (IC50) in experiment [1] was less than 0.005 µM; in experiment [2] (setting [4]), less than 0.003 µM; in experiment [2] (setting [5]) it was less than 0.05 µM; in experiment [3] it was less than 0.01 µM.
For `CC(C)C1=C2[C@H]3CC[C@@H]4[C@@]5(C)CC[C@H](OC(=O)[C@H]6C[C@@H](C(=O)O)C6(C)C)C(C)(C)[C@@H]5CC[C@@]4(C)[C@]3(C)CC[C@@]2(NC(=O)C(C)(C)NC(=O)c2cnn3cccnc23)CC1=O` [Example 54, (1R,3S)-3-((((3aR,5aR,5bR,7aR,9S,11aR,11bR,13aS)-1-isopropyl-5a,5b,8,8,11a-pentamethyl-3a-(2-methyl-2-(pyrazolo[1,5-a]pyrimidine-3-carboxamido)propanamido)-2-oxo-3,3a,4,5,5a,5b,6,7,7a,8,9,10,11,11a,11b,12,13,13a-octadecahydro-2H-cyclopenta[a]chrysen-9-yl)oxy)carbonyl)-2,2-dimethylcyclobutane-1-carboxylic acid], in that order: less than 0.005 µM, less than 0.003 µM, less than 0.05 µM and 0.01 to 0.05 µM.
In the same order, the values of `CC(C)C1=C2[C@H]3CC[C@@H]4[C@@]5(C)CC[C@H](OC(=O)[C@H]6C[C@@H](C(=O)O)C6(C)C)C(C)(C)[C@@H]5CC[C@@]4(C)[C@]3(C)CC[C@@]2(NC(=O)C(C)(C)NC(=O)c2csc(N)n2)CC1=O` [Example 55, (1R,3S)-3-((((3aR,5aR,5bR,7aR,9S,11aR,11bR,13aS)-3a-(2-(2-aminothiazole-4-carboxamido)-2-methylpropanamido)-1-isopropyl-5a,5b,8,8,11a-pentamethyl-2-oxo-3,3a,4,5,5a,5b,6,7,7a,8,9,10,11,11a,11b,12,13,13a-octadecahydro-2H-cyclopenta[a]chrysen-9-yl)oxy)carbonyl)-2,2-dimethylcyclobutane-1-carboxylic acid] are greater than 0.01 µM, 0.00301 to 0.01 µM, 0.05 to 0.2 µM and greater than 0.05 µM.
For `Cc1nnc(-c2ccc(C(=O)NC(C)(C)C(=O)N[C@@]34CC[C@]5(C)[C@H](CC[C@@H]6[C@@]7(C)CC[C@H](OC(=O)[C@H]8C[C@@H](C(=O)O)C8(C)C)C(C)(C)[C@@H]7CC[C@]65C)C3=C(C(C)C)C(=O)C4)cc2)o1` [Example 56, (1R,3S)-3-((((3aR,5aR,5bR,7aR,9S,11aR,11bR,13aS)-1-isopropyl-5a,5b,8,8,11a-pentamethyl-3a-(2-methyl-2-(4-(5-methyl-1,3,4-oxadiazol-2-yl)benzamido)propanamido)-2-oxo-3,3a,4,5,5a,5b,6,7,7a,8,9,10,11,11a,11b,12,13,13a-octadecahydro-2H-cyclopenta[a]chrysen-9-yl)oxy)carbonyl)-2,2-dimethylcyclobutane-1-carboxylic acid], in that order: 0.00501 to 0.01 µM, less than 0.003 µM, less than 0.05 µM and 0.01 to 0.05 µM.
